Consider 18 compounds from patent US20030232860A1, “Medicine comprising dicyanopyridine derivative” (priority 2000, published 2003).

Where a name gives a salt, the structure may show the parent alone.

The subject of data set [1] is rat's removed bladder specimen. Description: Inhibition of the contraction of rat's removed bladder specimen (15 mM K+-induced contraction, organ bath). The conditions noted are these: SD male rat bladder strips, dose giving 50% inhibition of contraction area. An excerpt: Since the inhibitory action is blocked by a known maxi-K channel blocker charybdotoxin or iberiotoxin, it is confirmed that the effect of the compounds of the invention is based on the maxi-K channel opening effect. Thus, the pharmacological effect of the compounds of the invention was confirmed according to the following method.
<Inhibitory Effect in Construction of the Rat's Removed Bladder Specimen>
In this experiment, SD-family male rats (9-13 weeks of age) were used. The rats were killed by bleeding under ether anesthesia, and the bladders were removed. The removed bladders were immediately washed in a Kiebs-Henseleit solution (NaCl 118.4, KCl 4.7, KH2PO4 1.2, MgSO4 1.2, CaCl2 2.5, NaHCO3 25.0, glucose 11.1 [mM], aeration with 95% O2/5% CO2 mixed gas) kept at 37° C., and prepared into rectangular specimens of about 10 mm long and about 2 mm width on a Petri dish filled with the Klebs-Henseleit solution. The respective specimens were ligated at the both ends with a cotton string via a wire hook, and the one end was fixed to an FD pick-up and the other hung down vertically in an organ bath filled with the Klebs-Henseleit solution. After completion of the operation, 1.0 g of static tensile stress was given to the respective slices, which were then allowed to stand for 1.5-2 hours to stabilize. Then, a KCl solution was added to the organ bath so that the final K^+ ion concentration become 15 mM to induce the contraction. Thereafter, the specimens were further allowed to stand for about 1-2 hours to stabilize, and the test was started. The contraction of the smooth muscle was measured isometrically through the FD pick-up, and the output signal was amplified through a strain stress amplifier to continuously record a chart on a pen recorder. At the same time, the respective contraction wave forms to be analyzed were recorded on a personal computer as magnetic data through an analogue/digital signal converter, and the under-area of the contraction was calculated by analytical software. The contraction 5 minutes immediately after the start of the test was regarded as the value before administration of the drug to be tested (100% reference value). The drug to be tested was added into the bath at intervals of 30 minutes, and the contraction for 5 minutes, respectively 25 minutes after the administration, was analyzed. The drug to be tested was administered at a common ratio of 3 or 10 accumulatively. The effect of the drug to be tested was represented by the dose by which 50% inhibition was attained to the value before the administration (100% reference value). Additionally, the wave form of contraction at the highest dose of the drug was recorded, and then a maxi-K channel selective blocker, charybdotoxin or iberiotoxin, was administered so that the final concentration in the organ bath became 100 nM. Thus, the effect of the drug was observed whether it was blocked or not.

Data set [2] deals with rhythmic bladder contraction in rats under urethane anesthesia. Nature of the data set: Rhythmic contraction of the bladder in rats under urethane anesthesia. The data set is classed as in vivo, rat. The conditions noted are these: urethane-anesthetized SD female rats, i.d.; for inhibition in vivo at 10 mg/kg: Rattus norvegicus, intraduodenal, up to 2 hours, read-out: Inhibition of frequency of the bladder contraction max % inhibition; for Frequency of Bladder Contraction Retention time of 50% Inhibition: 10 mg/kg. The source says:
<Effect on the Rhythmic Contraction of the Bladder in Rats Under Urethane Anesthesia>
SD-Family female rats (about 300 g) were used. A catheter was inserted into the bladder through the external urethral orifice under urethane anesthesia and spontaneous breathing. The other end was connected to a pressure transducer and an infusion pump through a three-way cock. On the other hand, another catheter for measuring blood pressure was inserted into the right common carotid artery. Physiological saline warmed at about 38° C. was injected in the bladder at a rate of 4.2 ml/hr until rhythmical bladder contraction was induced. Change of the internal pressure in the bladder was continuously recorded on a recorder. After the rhythmical bladder contraction was stabilized, a test compound suspended in 0.5% methylcellulose aqueous solution was administered through a catheter which had been attached to the duodenum. Thus, frequency of the bladder contraction (every 10 minutes), force of bladder contraction and average blood pressure were observed as evaluation items up to 2 hours after administration of the test compound.

The test system of data set [3] is rhythmic vesical contraction in an anesthetized rat. Particulars: cited from earlier work.
For data set [4], the system named is murine removed bladder smooth muscle. The conditions noted are these: cited from earlier work.

As to `COc1nc(NC(C)=O)c(C#N)c(-c2ccccc2F)c1C#N` [Example 58, N-[3,5-dicyano-4-(2-fluorophenyl)-6-methoxypyridin-2-yl]acetamide], the melting point is 192 to 193 °C. Moreover, in data set [1], 1400 nM corresponded to half-maximal inhibition (IC50). Moreover, in data set [2], the inhibition in vivo at 10 mg/kg is 93% and the “Frequency of Bladder Contraction Retention time of 50% Inhibition” value (from here on “Frequency … of 50% Inhibition”) was 46 min.

In turn, `COc1nc(N)c(C#N)c(-c2cccs2)c1C#N` [Example 1, 2-amino-6-methoxy-4-(2-thienyl)pyridine-3,5-dicarbo-nitrile] returned an IC50 in data set [1] of 150 nM.

For `N#Cc1c(N)nc(OCC(F)F)c(C#N)c1-c1ccccc1F` [Example 12, 2-amino-6-(2,2-difluoroethoxy)-4-(2-fluorophenyl)pyridine-3,5-dicarbonitrile], the melting point was in the range of 219 to 220 °C. Also, in data set [1], inhibition was half-maximal at 410 nM (IC50). In data set [2], the inhibition in vivo at 10 mg/kg came to 77% and the “Frequency … of 50% Inhibition” value was determined as 31 min.

`COc1nc(N)c(C#N)c(-c2ccccc2F)c1C#N` [Example 3, 2-amino-6-methoxy-4-(2-fluorophenyl)pyridine-3,5-dicarbonitril] came in with a melting point of 240 to 241 °C. 230 nM corresponded to half-maximal inhibition in data set [1] (IC50). Also, in data set [2], the inhibition in vivo at 10 mg/kg came out at 97% and the “Frequency … of 50% Inhibition” value worked out at 39 min.

Regarding `COc1nc(N)c(C#N)c(CC2CCCCC2)c1C#N` [Example 150, 2-amino-4-cyclohexylmethyl-6-methoxypyridine-3,5-dicarbonitrile], the melting point was 139 to 140 °C. In data set [1], this compound gave an IC50 of 1300 nM. Moreover, in data set [2], the inhibition in vivo at 10 mg/kg amounted to 81% and the “Frequency … of 50% Inhibition” value is 30 min.

`C#CCOc1nc(N)c(C#N)c(-c2ccccc2F)c1C#N` [Example 11, 2-amino-4-(2-fluorophenyl)-6-(prop-2-yn-1-yloxy)pyridine-3,5-dicarbonitrile] yielded a melting point of 205 to 206 °C. For the same compound, inhibition in data set [1] was half-maximal at 410 nM (IC50). Further, in data set [2], the inhibition in vivo at 10 mg/kg amounted to 87% and the “Frequency … of 50% Inhibition” value is recorded as 27 min.

As for `COc1nc(N)c(C#N)c(Cc2ccccc2)c1C#N` [Example 151, 2-amino-4-benzyl-6-methoxypyridine-3,5-dicarbonitrile], the melting point lay in the range of 215 to 216 °C. The compound further displayed an IC50 in data set [1] of 1000 nM. In data set [2], the inhibition in vivo at 10 mg/kg came to 71% and the “Frequency … of 50% Inhibition” value was 26 min.

In data set [1], `N#Cc1c(N)nc(OCCOC(=O)[C@@H](N)Cc2ccccc2)c(C#N)c1-c1ccccc1` [Example 15, 2-[(2-amino-3,5-dicyano-4-phenylpyridin-6-yl)oxy]ethyl (S)-2-amino-3-phenylpropanoate monohydrochloride monohydrate] gave an IC50 of 2800 nM. In addition, in data set [2], the inhibition in vivo at 10 mg/kg was found to be 89% and the “Frequency … of 50% Inhibition” value is listed as 36 min.

Compound `Cc1c(-c2ccccc2F)[nH]c(N)c1C#N` [NS-8] returned an IC50 in data set [1] of 1100 nM. Also, in data set [3], the Rhythmic vesical contraction entry is “makes rhythmic vesical contraction subsided”. For the same compound, the “Relaxant effect for the murine removed bladder smooth muscle” value in data set [4] is recorded as “exhibits a relaxant effect”.

Take `COc1nc(NC(=O)c2ccco2)c(C#N)c(-c2ccccc2F)c1C#N` [Example 415, N-[3,5-dicyano-4-(2-fluorophenyl)-6-methoxypyridin-2-yl]furan-2-carboxamide]: the melting point lay in the range of 222 to 223 °C.

For `COc1nc(N)c(C#N)c(C2CCCCO2)c1C#N` (stereo not drawn) [Example 6, 2-amino-4-(2-tetrahydropyranyl)-6-methoxypyridine-3,5-dicarbonitrile], the melting point lay in the range of 134 to 135 °C. For the same compound, inhibition in data set [1] was half-maximal at 1300 nM (IC50). In data set [2], the inhibition in vivo at 10 mg/kg stood at 65% and the “Frequency … of 50% Inhibition” value stood at 39 min.

`COc1nc(N)c(C#N)c(-c2ccc(N)cc2)c1C#N.Cl.O` [Example 20, 2-amino-(4-aminophenyl)-6-methoxypyridine-3,5-dicarbonitrile monohydrochloride monohydrate] gave an IC50 in data set [1] of 110 nM. Also, in data set [2], the inhibition in vivo at 10 mg/kg is 86% and the “Frequency … of 50% Inhibition” value is 40 min.

For `CN(C)c1cccc(-c2c(C#N)c(N)nc(SCc3cccnc3)c2C#N)c1.Cl.Cl`, the melting point lay within 243 to 245 °C.

For `COc1nc(N)c(C#N)c(C2CCNCC2)c1C#N` (as salt: hydrochloride) (hydrate or solvate), the melting point was 240 °C (dec.).

As for `N#Cc1c(N)nc(Cl)c(C#N)c1-c1ccccc1` [Example 9, 2-amino-6-chloro-4-phenylpyridine-3,5-dicarbonitrile], the melting point was above 300 °C.

As for `N#Cc1c(N)nc(N2CCNCC2)c(C#N)c1-c1ccccc1` (as salt: HCl) [Example 210], the melting point is 260 to 263 °C (dec.).

Consider `COc1nc(O)c(C#N)c(-c2ccccc2)c1C#N` [Example 25, 2-hydroxy-6-methoxy-4-phenylpyridine-3,5-dicarbonitrile], for which the melting point was 255 to 257 °C (dec.).

With `COc1nc(N)c(C#N)c(C2CCOC2)c1C#N` (stereo not drawn) [Example 163], the melting point lay in the range of 205 to 206 °C.
